According to patent publication US7868026B2, “Therapeutic compounds” (Pfizer Inc., priority 2005, dated 2011):
Read-outs that look alike come from different tables or passages of the source.

What was measured:
Type in all cases: biochemical
[1] = target: T1, CYP3A4 (Homo sapiens, UniProt P08684); assay: Determination of compound Kiapp against recombinant CYP3A4 enzyme (BFC fluorescent substrate)
Method in brief: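 Recombinant CYP3A4 (5.5 or 8 nM, with or without b5 depending on source) pre-incubated with inhibitor ≥30 min at room temperature in 100 mM sodium phosphate pH 7.0, 5 mM TCEP, 2% DMF. Reaction started with 200 uM NADPH and 5 uM BFC; initial fluorescence rates over 5 min fitted to Morrison tight-binding (non-partial) or Szedlacsek (partial) equations for Kiapp.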

[2] = target: T1, CYP3A4; assay: Determination of IC50 against CYP3A4 by measurement of inhibition of testosterone metabolism (human liver microsomes, 6-β-OH-testosterone by LC-MS/MS); design: 0.1 mg/mL human liver microsomes; conditions: read-out: IC50 (Testo.)
Method: 2. Determination of IC50 Against CYP3A4 by Measurement of Inhibition of Testosterone Metabolism
This assay was performed using a standard 96 well plate design. […] The incubation substrate mix contains 25 μM testosterone, 0.1 mg/mL human liver microsomes, 1 mM NADPH, and potassium phosphate buffer (100 mM, pH 7.4). Quantitation of metabolite peak area ratio against an internal standard is determined by LC-MS/MS analysis. The production of 6-β-OH-testosterone from testosterone metabolism is determined after incubation for eight minutes by comparison to a standard curve generated for the metabolite
Samples were analyzed in the MRM mode using a Sciex API 3000 mass spectrometer (Applied Biosystems, Foster City, Calif.) with a Paradigm MS4 binary pump (Michrom BioResources Inc., Auburn, Calif.) and a LEAP CTC PAL autosampler (LEAP Technologies, Carrboro, N.C.). A Phenomenex Synergi, 4μ, Polar-RP, 10×2.0 mm column (Phenomenex, Torrance, Calif.) was used for separation with a mobile phase composition of: 0.1% formic acid in water (A) and: 0.1% formic acid in methanol (B). The following gradient was used: […]
The sample injection volume was 10 μL and flow was split post-column with 0.4 mL/min going to the mass spectrometer. Analysis was performed using the following API 3000 mass spectrometer settings: […]

[3] = target: T1, CYP3A4; assay: Determination of IC50 against CYP3A4 by measurement of inhibition of midazolam metabolism (human liver microsomes, 1-hydroxymidazolam by LC-MS/MS); design: 0.1 mg/mL human liver microsomes; conditions: 2 μM midazolam, 0.1 mg/mL human liver microsomes
Method in brief: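 Human liver microsomes (0.1 mg/mL) incubated 8 min with 2 μM midazolam and 1 mM NADPH in 100 mM potassium phosphate, pH 7.4. 1-Hydroxymidazolam quantified by LC-MS/MS (MRM) as peak area ratio to internal standard against a metabolite standard curve.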

[4] = Baculo. enzyme preparation, read-out: Kiapp (BFC, Baculo.)
[5] = Super. enzyme preparation, read-out: Kiapp (BFC, Super.)

T1 sequence (P08684 whole entry): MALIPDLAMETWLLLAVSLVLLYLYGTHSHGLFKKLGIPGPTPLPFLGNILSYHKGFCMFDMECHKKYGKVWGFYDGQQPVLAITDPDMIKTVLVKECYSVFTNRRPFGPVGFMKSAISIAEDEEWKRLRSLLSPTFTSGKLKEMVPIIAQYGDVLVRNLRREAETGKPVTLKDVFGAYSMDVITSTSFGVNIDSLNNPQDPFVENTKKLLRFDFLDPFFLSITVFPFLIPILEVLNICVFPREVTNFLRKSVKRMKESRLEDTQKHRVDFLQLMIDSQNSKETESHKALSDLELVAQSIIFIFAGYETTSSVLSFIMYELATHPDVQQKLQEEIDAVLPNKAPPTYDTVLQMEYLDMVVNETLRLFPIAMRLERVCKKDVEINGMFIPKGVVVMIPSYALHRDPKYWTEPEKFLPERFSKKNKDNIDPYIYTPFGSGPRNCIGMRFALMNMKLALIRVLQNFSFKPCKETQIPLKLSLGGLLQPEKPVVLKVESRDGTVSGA

Ki [1, 4] [nM] | Ki [1, 5] [nM] | IC50 [2] [nM] | IC50 [3] [nM] | SMILES
99.8 | 14.2 | 49 | 15 | CN(Cc1ccc(F)c(F)c1)C(=O)c1ccccc1S(=O)(=O)Nc1cccnc1 [Example 284, N-(3,4-difluorobenzyl)-N-methyl-2-[(pyridin-3-ylamino)sulfonyl]benzamide]
378 | 22.5 | 51.5 | 35.9 | CC(C)CCNC(=O)c1ccccc1S(=O)(=O)Nc1cccnc1 [Example 42, N-(3-methylbutyl)-2-[(pyridin-3-ylamino)sulfonyl]benzamide]
> 1000 | – | 691 | 494 | COC1CCN(C(=O)c2ccccc2S(=O)(=O)Nc2cccnc2)CC1 [Example 26, 2-[(4-methoxypiperidin-1-yl)carbonyl]-N-pyridin-3-ylbenzenesulfonamide]
4.5 | 2.98 | 27 | 21 | CCOc1cncc(NS(=O)(=O)c2ccccc2C(=O)NCc2ccc(Cl)c(Cl)c2)c1 [Example 291, N-(3,4-dichlorobenzyl)-2-{[(5-ethoxypyridin-3-yl)amino]sulfonyl}benzamide]
751 | 97 | 150 | 77 | COc1cncc(NS(=O)(=O)c2ccccc2C(=O)NCCOC(C)C)c1 [Example 241, N-(2-isopropoxyethyl)-2-{[(5-methoxypyridin-3-yl)amino]sulfonyl}benzamide]
35 | 8.6 | 84 | 119 | Cc1ccccc1CCNC(=O)c1ccccc1S(=O)(=O)N(C)c1cccnc1 [Example 325, N-[2-(2-methylphenyl)ethyl]-2-{[methyl(pyridin-3-yl)amino]sulfonyl}benzamide]
28.1 | 11.5 | 31 | 18 | CCCCN(C)C(=O)c1ccccc1S(=O)(=O)Nc1cncc(OC)c1 [Example 353, N-butyl-2-{[(5-methoxypyridin-3-yl)amino]sulfonyl}-N-methylbenzamide]
680 | – | 57 | 34 | COc1cc(CNC(=O)c2ccccc2S(=O)(=O)Nc2cccnc2)cc(OC)c1 [Example 51, N-(3,5-dimethoxybenzyl)-2-[(pyridin-3-ylamino)sulfonyl]benzamide]
36.4 | 3.4 | 12 | 8 | COc1cncc(NS(=O)(=O)c2ccccc2C(=O)NCC2(O)C3CC4CC(C3)CC2C4)c1 (stereo not shown) [Example 188, N-[(2-hydroxy-2-adamantyl)methyl]-2-{[(5-methoxypyridin-3-yl)amino]sulfonyl}benzamide]
> 1000 | 209 | 27 | 118 | CC(C)(O)c1ccc(CNC(=O)c2ccccc2S(=O)(=O)Nc2cccnc2)cc1 [Example 86, N-[4-(1-hydroxy-1-methylethyl)benzyl]-2-[(pyridin-3-ylamino)sulfonyl]benzamide]
> 1000 | – | > 750 | > 750 | N#Cc1cncc(NS(=O)(=O)c2ccccc2C(=O)N2CCCCC2)c1 [Example 22, N-(5-cyanopyridin-3-yl)-2-(piperidin-1-ylcarbonyl)benzenesulfonamide]
58.5 | 15.6 | 135 | 31 | CCOc1cncc(NS(=O)(=O)c2ccccc2C(=O)N2CCCC(C)(C)C2)c1 [Example 298, 2-[(3,3-dimethylpiperidin-1-yl)carbonyl]-N-(5-ethoxypyridin-3-yl)benzenesulfonamide]
513 | 42 | 95 | 62 | COc1cncc(NS(=O)(=O)c2ccc(Cl)cc2C(=O)N2CCCC(C)C2)c1 (stereo not shown) [Example 308, 4-chloro-N-(5-methoxypyridin-3-yl)-2-[(3-methylpiperidin-1-yl)carbonyl]benzenesulfonamide]
86.8 | 8.6 | 11 | 5 | Cc1cncc(NS(=O)(=O)c2ccccc2C(=O)NCCc2ccccc2F)c1 [Example 227, N-[2-(2-fluorophenyl)ethyl]-2-{[(5-methylpyridin-3-yl)amino]sulfonyl}benzamide]
57.3 | 16.1 | 19 | 9.5 | CCC(C)CNC(=O)c1ccccc1S(=O)(=O)Nc1cncc(OC)c1 (stereo not shown) [Example 208, 2-{[(5-methoxypyridin-3-yl)amino]sulfonyl}-N-(2-methylbutyl)benzamide]
270 | 10.5 | 29 | 31 | O=C(NCc1ccccc1)c1ccccc1S(=O)(=O)Nc1cccnc1 [Example 12, N benzyl-2-[(pyridin-3-ylamino)sulfonyl]benzamide]
570 | 148 | > 750 | 317 | COc1cncc(NS(=O)(=O)c2ccccc2C(=O)N2CCOCC2)c1 [Example 367, N-(5-methoxypyridin-3-yl)-2-(morpholin-4-ylcarbonyl)benzenesulfonamide]
76.3 | 17.6 | 33 | 21 | CCCCCNC(=O)c1ccccc1S(=O)(=O)Nc1cncc(OC)c1 [Example 377, 2-{[(5-methoxypyridin-3-yl)amino]sulfonyl}-N-pentylbenzamide]
171 | 9.7 | 7 | 6 | COc1cncc(NS(=O)(=O)c2ccccc2C(=O)NCc2ccccc2OC)c1 [Example 186, N-(2-methoxybenzyl)-2-{[(5-methoxypyridin-3-yl)amino]sulfonyl}benzamide]
169 | 36.4 | 76 | 37 | Cc1cncc(NS(=O)(=O)c2ccccc2C(=O)N2CCC(C)CC2)c1 [Example 363, 2-[(4-methylpiperidin-1-yl)carbonyl]-N-(5-methylpyridin-3-yl)benzenesulfonamide]
49.4 | 1.3 | 8 | 8 | Cc1cncc(NS(=O)(=O)c2ccccc2C(=O)NCc2ccc(C)c(F)c2)c1 [Example 157, N-(3-fluoro-4-methylbenzyl)-2-{[(5-methylpyridin-3-yl)amino]sulfonyl}benzamide]
400 | 52.5 | 95 | 39 | CCCCN(C)C(=O)c1ccccc1S(=O)(=O)Nc1cnccc1OC [Example 280, N-butyl-2-{[(4-methoxypyridin-3-yl)amino]sulfonyl}-N-methylbenzamide]
30.2 | 5.25 | 16 | 14.5 | COc1ccncc1NS(=O)(=O)c1ccccc1C(=O)N(C)Cc1ccc(F)c(F)c1 [Example 256, N-(3,4-difluorobenzyl)-2-{[(4-methoxypyridin-3-yl)amino]sulfonyl}-N-methylbenzamide]
17.1 | 2.8 | 10 | 11 | COc1cncc(NS(=O)(=O)c2ccccc2C(=O)NCc2cccc(Cl)c2Cl)c1 [Example 185, N-(2,3-dichlorobenzyl)-2-{[(5-methoxypyridin-3-yl)amino]sulfonyl}benzamide]
52 | 2.79 | 64 | 30 | COc1cncc(NS(=O)(=O)c2ccccc2C(=O)NC(C)(C)c2ccccc2)c1 [Example 381, 2-{[(5-methoxypyridin-3-yl)amino]sulfonyl}-N-(1-methyl-1-phenylethyl)benzamide]
99.4 | 11.5 | 32 | 28 | COc1cncc(NS(=O)(=O)c2ccccc2C(=O)N[C@H]2C[C@@H]2c2ccccc2)c1 [Example 232, 2-{[(5-methoxypyridin-3-yl)amino]sulfonyl}-N-[(1S2R)-2-phenylcyclopropyl]benzamide]
753 | 270 | > 750 | 347 | CCOc1cncc(NS(=O)(=O)c2ccccc2C(=O)N2CCOCC2)c1 [Example 305, N-(5-ethoxypyridin-3-yl)-2-(morpholin-4-ylcarbonyl)benzenesulfonamide]
> 1000 | 95.2 | 337 | 123 | COc1ccncc1NS(=O)(=O)c1ccccc1C(=O)N(C)C(C)C [Example 279, N-isopropyl-2-{[(4-methoxypyridin-3-yl)amino]sulfonyl}-N-methylbenzamide]
